Measured values from paper PMC7792806, “Development of Second Generation Activity-Based Chemical Probes for Sirtuins” (Molecules, 2020).
pIC50: −log10 of the molar value.

What was measured:
SIRT2 = target: T1, SIRT2 (Homo sapiens, UniProt Q8IXJ6); assay: Sirtuin inhibition assay (HPLC), SIRT2; type: biochemical
T1 construct: SIRT2 (38-356); made in house
T1 sequence (Q8IXJ6 38-356): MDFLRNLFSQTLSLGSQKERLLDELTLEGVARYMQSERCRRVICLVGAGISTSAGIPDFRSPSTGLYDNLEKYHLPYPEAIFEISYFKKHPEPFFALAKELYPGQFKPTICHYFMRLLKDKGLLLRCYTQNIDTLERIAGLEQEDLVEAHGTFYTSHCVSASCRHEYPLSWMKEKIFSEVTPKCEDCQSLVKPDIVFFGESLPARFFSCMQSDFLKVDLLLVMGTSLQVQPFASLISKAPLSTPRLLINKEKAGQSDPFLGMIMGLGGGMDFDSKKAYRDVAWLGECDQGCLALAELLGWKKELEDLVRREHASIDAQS
Experimental: (§1) Plasmids of SIRT1 (full length), SIRT2 (38-356), SIRT3 (102-399), and SIRT5 (34-302) were generous gifts from Dr. Hening Lin (Cornell University, Ithaca, NY, USA). SIRT6 was a gift from Cheryl Arrowsmith (Addgene plasmid #28271). The proteins were expressed and purified according to previously published protocols. The identity of the protein was confirmed by tryptic digestion followed by LC-MS/MS analysis performed at the Vermont Genetic Network (VGN) Proteomics Facility. Protein concentrations were determined by Bradford assay (Thermo Fisher Scientific, Rockford, IL, USA).
(§2) A typical reaction contained 500 μM NAD^+ and 500 μM peptide substrate (H3K9Ac for SIRT2, SIRT3 and SIRT6, p53K382Ac for SIRT1 and SIRT5) of varying concentrations of a small molecule probe in 100 mM phosphate buffer pH 7.5. The reactions were initiated by the addition of 10 μM of sirtuin and were incubated at 37 °C before being quenched by 8 μL of 10% TFA. The incubation time was controlled so that the conversion of substrate was less than 15%. The samples were then injected on an HPLC fitted to a Macherey-Nagel Nucleosil C18 column. NAD^+, NAM and AADPR (acetyl-ADP-ribose) peaks were resolved using a gradient of 0 to 20% methanol in 20 mM ammonium acetate. Chromatograms were analyzed at 260 nm. Reactions were quantified by integrating areas of peaks corresponding to NAD^+ and AADPR. Rates were plotted as a function of small molecule probe concentration, and points were fitted to the following equation:ν(%) = ν0(%) − [ν0(%)(10^x)/(10^x + IC50)](1) where ν(%) represents the turnover rate expressed as percent enzymatic activity remaining, and ν0(%) represents the uninhibited turnover rate expressed as an enzymatic activity of 100%. The variable x represents the log[probe] in nanomolar. IC50 values were derived from this equation.

SIRT3 = target: T2, SIRT3 (Homo sapiens, UniProt Q9NTG7); assay: Sirtuin inhibition assay (HPLC), SIRT3; type: biochemical; details: substrate H3K9Ac; 500 μM NAD+, 500 μM peptide, 10 μM sirtuin, pH 7.5, 37 °C
T2 construct: SIRT3 (102-399); made in house
T2 sequence (Q9NTG7 102-399): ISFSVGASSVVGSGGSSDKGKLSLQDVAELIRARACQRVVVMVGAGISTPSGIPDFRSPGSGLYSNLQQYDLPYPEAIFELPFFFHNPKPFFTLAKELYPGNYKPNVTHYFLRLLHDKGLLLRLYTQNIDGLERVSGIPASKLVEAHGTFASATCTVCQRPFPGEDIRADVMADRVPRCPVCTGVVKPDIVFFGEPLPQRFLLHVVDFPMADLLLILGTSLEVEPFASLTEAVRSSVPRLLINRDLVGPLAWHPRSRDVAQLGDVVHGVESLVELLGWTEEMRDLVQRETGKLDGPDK
Experimental: as §1, §2

SIRT5 = target: T3, SIRT5 (Homo sapiens, UniProt Q9NXA8); assay: Sirtuin inhibition assay (HPLC), SIRT5; type: biochemical
T3 construct: SIRT5 (34-302); made in house
T3 sequence (Q9NXA8 34-302): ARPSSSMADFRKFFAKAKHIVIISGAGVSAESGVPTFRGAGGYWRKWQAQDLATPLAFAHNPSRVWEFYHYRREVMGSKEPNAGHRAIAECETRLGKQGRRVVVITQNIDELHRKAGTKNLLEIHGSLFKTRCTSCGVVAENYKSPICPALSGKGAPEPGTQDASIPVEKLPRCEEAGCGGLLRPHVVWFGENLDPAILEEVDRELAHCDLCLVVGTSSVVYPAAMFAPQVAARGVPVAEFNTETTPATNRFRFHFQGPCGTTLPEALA
Experimental: as §1, §2

[1] = tested on: SIRT1, SIRT2, SIRT3, SIRT5, and SIRT6; assay: Labeling in recombinant sirtuin mixture, isoform selectivity; type: biochemical, human
Experimental: Figure 4 Labeling of SIRT5 by probe 2B. (A) Dose-dependent labeling of SIRT5 by probe 2B in recombinantly expressed, partially purified sirtuin mixture. SIRT1, SIRT2, SIRT3, SIRT5, and SIRT6 were mixed and incubated with 500 μM NAD^+ and increasing concentrations of 2B. The samples were incubated at 37 °C for 10 min and subjected to UV irradiation for 20 min, and then “click” conjugated to TAMRA-azide; (B) Chemical structure of H3K9Suc; (C) Peptide competition. The labeling of SIRT5 by probe 2B decreased with increasing concentrations of the competitor peptide, H3K9Suc.
(§3) Remarkably, probe 2C was also able to label individual sirtuin isoforms in cell lysates. HEK293 cells overexpressing human SIRT2 were lysed, and the lysate was subjected to the labeling by 10 μM probe 2C.
A typical labeling experiment was performed as follows: in a 0.7 mL Eppendorf tube, purified recombinant human sirtuin (10 μM) was incubated with NAD^+ (500 μM) and activity-based probe at 37 °C for 10 min. The sample was transferred to a clear-bottom 96-well plate, placed on ice, and irradiated at 365 nm with a UV-lamp in a cold room. […] Then, destained gel was analyzed with in-gel fluorescence scanning using a Biorad ChemiDoc MP imager (excitation 532 nm, 580 nm cut-off filter and 30 nm band-pass). […]

SIRT6H133Y = SIRT6H133Y (Homo sapiens, UniProt Q8N6T7, H133Y); assay: Labeling of catalytically inactive mutant SIRT6H133Y; type: biochemical
Experimental: as §3
A typical labeling experiment was performed as follows: in a 0.7 mL Eppendorf tube, purified recombinant human sirtuin (10 μM) was incubated with NAD^+ (500 μM) and activity-based probe at 37 °C for 10 min. The sample was transferred to a clear-bottom 96-well plate, placed on ice, and irradiated at 365 nm with a UV-lamp in a cold room. Subsequently, ingredients of the “click-chemistry” including azide-fluor 545, CuSO4, reducing agent (tris(2-carboxyethyl)phosphine, TCEP) and stabilizing agent (tris[(1-benzyl-1H-1,2,3-triazol-4-yl)methyl]amine, TBTA) were added, and the sample was gently agitated at 250 rpm on a microshaker at room temperature for 30 min. Then, the sample was resolved by SDS-PAGE. To […] the signal to noise ratio, the gel was destained to eliminate non-specific binding of free dyes. This was done in a mixture of methanol/distilled water/acetic acid (v/v/v = 4/5/1) at ambient temperature for 4 h. Then, destained gel was analyzed with in-gel fluorescence scanning using a Biorad ChemiDoc MP imager (excitation 532 nm, 580 nm cut-off filter and 30 nm band-pass). Finally, Coomassie blue staining was applied to provide loading control.

Chain of SIRT6H133Y (Q8N6T7 whole entry H133Y): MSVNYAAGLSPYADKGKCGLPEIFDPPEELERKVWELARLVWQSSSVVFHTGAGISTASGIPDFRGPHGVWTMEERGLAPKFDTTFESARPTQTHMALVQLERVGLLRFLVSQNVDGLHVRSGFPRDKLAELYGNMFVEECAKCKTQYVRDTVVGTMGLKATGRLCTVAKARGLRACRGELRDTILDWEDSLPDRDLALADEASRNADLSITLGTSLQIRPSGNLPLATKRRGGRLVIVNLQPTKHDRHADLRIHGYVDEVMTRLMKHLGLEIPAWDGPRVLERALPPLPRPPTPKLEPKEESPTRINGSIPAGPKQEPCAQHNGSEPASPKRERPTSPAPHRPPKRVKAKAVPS

Row | pIC50 (SIRT2; substrate H3K9Ac, 500 μM NAD+, 500 μM peptide, 10 μM sirtuin, pH 7.5, 37 °C) | pIC50 (SIRT3) | increase of SIRT5 inhibition compared with 1B (SIRT5; ratio of IC50s) [fold] | increase of SIRT2 inhibition compared with 1C (SIRT2; ratio of IC50s) [fold] | selectivity for SIRT2 over SIRT6 (SIRT2; ratio of IC50s) [fold] | pIC50 (SIRT5; substrate p53K382Ac, 500 μM NAD+, 500 μM peptide, 10 μM sirtuin, pH 7.5, 37 °C, NI = Not inhibited) | labeling of SIRT6H133Y (SIRT6H133Y) | SMILES | labeling of other sirtuin isoforms in sirtuin mixture ([1]; partially purified recombinant sirtuin mixture) | isoforms labeled in sirtuin mixture [1]
1 | < 2.30 | < 2.30 | ~1.7 |  |  |  |  | C#CCCCC1(CCC(=O)N[C@@H](CCCCNC(=S)CCC(=O)O)C(=O)N[C@@H](C)C(=O)N[C@@H](C)C(=O)OC)N=N1 [Probe 2B] | negligible labeling of the other sirtuin isoforms | 
2 |  | < 2.70 |  | 3 | ~2 | < 2.30 | failed to label | C#CCCCC1(CCC(=O)N[C@@H](CCCCNC(=S)CCCCCCCCCCCCC)C(=O)N[C@@H](C)C(=O)N[C@@H](C)C(=O)OC)N=N1 [Probe 2C] |  | highlighting SIRT1, SIRT2, and SIRT6
